ChEMBL document CHEMBL1157275, “Biological activities of 7-epiclusianone” (J Nat Prod, 1999)
In brackets after ≈: the same amount, converted by molar mass. Activity calls are given as the source filed them. The calls are words filed in the database; no cut-off is given here.

Key:
Trypanosoma cruzi [1] = assay: Antitrypanosomal activity against Trypanosoma cruzi Y trypomastigotes infected in Swiss albino mouse blood assessed as reduction of parasite number at 250 ug/mL after 24 hrs; assay type: functional; design: scale not given: the % may be the effect or the level left
[2] = Toxicity in Artemia salina; assay type: organism-based; conditions: in vivo
Trypanosoma cruzi [3] = assay: Antitrypanosomal activity against Trypanosoma cruzi Y trypomastigotes infected in Swiss albino mouse assessed as reduction in parasitaemia at 500 mg/kg, po after 6 hrs; assay type: functional, organism-based; design: dose 500 mg/kg
Trypanosoma cruzi [4] = assay: Antitrypanosomal activity against Trypanosoma cruzi Y trypomastigotes infected in Swiss albino mouse assessed as mortality rate at 100 mg/kg, po daily for 4 days assessed after 6 to 9 days; assay type: functional, organism-based; design: dose 100 mg/kg
Trypanosoma cruzi [5] = assay: Antitrypanosomal activity against Trypanosoma cruzi Y trypomastigotes infected in Swiss albino mouse blood assessed as reduction of parasite number at 125 ug/mL after 24 hrs; assay type: functional; design: scale not given: the % may be the effect or the level left
[6] = system: Cladosporium sphaerospermum; assay: Antifungal activity against Cladosporium sphaerospermum; assay type: functional, organism-based
Biomphalaria glabrata = assay: Molluscicidal activity against Biomphalaria glabrata at 20 ppm; assay type: functional, organism-based
Listeria monocytogenes = assay: Antimicrobial activity against Listeria monocytogenes; assay type: functional
[7] = system: Clavibacter michiganensis subsp. michiganensis; assay: Antimicrobial activity against Clavibacter michiganensis subsp. michiganensis; assay type: functional
Trypanosoma cruzi [8] = assay: Antitrypanosomal activity against Trypanosoma cruzi Y trypomastigotes infected in Swiss albino mouse blood assessed as reduction of parasite number at 500 ug/mL after 24 hrs; assay type: functional; design: scale not given: the % may be the effect or the level left
Staphylococcus aureus = assay: Antibacterial activity against Staphylococcus aureus; assay type: functional

Row | SMILES | Activity (Trypanosoma cruzi [1]) [%] | LC50 [2] [µM] | Activity (Trypanosoma cruzi [3]) | Activity (Trypanosoma cruzi [4]) | Activity (Trypanosoma cruzi [5]) [%] | Activity [6] | Activity (Biomphalaria glabrata) | IC100 (Listeria monocytogenes) [µg/mL] | MIC [7] [µg/mL] | Activity (Trypanosoma cruzi [8]) [%] | IC100 (Staphylococcus aureus) [µg/mL]
1 | CC(C)=CC[C@H]1C[C@]2(CC=C(C)C)C(=O)C(C(=O)c3ccccc3)=C(O)[C@](CC=C(C)C)(C2=O)C1(C)C | 38 | 49.7 | Active | inactive | 17 | inactive | inactive | 80 | 4 (≈ 7.96 µM) | 92 | 80
2 | O=C(Cn1ccnc1[N+](=O)[O-])NCc1ccccc1 |  |  | Active | Active |  |  |  |  |  |  | 
